Assay results: the OPERA property sets (Mansouri et al. 2018)

| Structure (SMILES) | boiling point | melting point | further results |
| --- | --- | --- | --- |
| O=Cc1ccc[nH]1 | 218 °C | 46.5 °C |  |
| CC(C)(O)CO | 176 °C |  |  |
| CNCc1ccccc1 | 180 °C |  |  |
| Nc1ccc([N+](=O)[O-])cc1Cl |  | 108 °C | log10 Henry constant (atm·m³/mol): -8.02; ready biodegradability: not readily biodegradable |
| Cc1ccccc1N1C(=O)c2cc(S(N)(=O)=O)c(Cl)cc2NC1C (stereo not given) |  | 256 °C |  |
| COc1cccc(O)c1O |  | 42.8 °C |  |
| O=[N+]([O-])c1ccccc1SSc1ccccc1[N+](=O)[O-] |  | 196 °C |  |
| CCCc1cccc(C)c1 | 182 °C | -82.5 °C | log10 vapour pressure (mmHg): 0.425 |
| CN1C(=O)CC(c2ccccc2)C1=O (stereo not given) |  | 72 °C |  |
| COc1ccc(/C=C/C(=O)Nc2ccccc2C(=O)O)cc1OC |  | 212 °C |  |
| CN(C)B(F)N(C)C | 106 °C | -44.3 °C |  |
| C[Si](C)(C)O[Si](C)(C)O[Si](C)(C)O[Si](C)(C)O[Si](C)(C)C | 232 °C | -80 °C | log10 vapour pressure (mmHg): -0.991 |
| CCCCCCCCCCCC | 216 °C | -9.6 °C | log10 biodegradation half-life (days): 1; log10 vapour pressure (mmHg): -0.87; ready biodegradability: readily biodegradable; log10 BCF (fish): 2.38; log10 biotransformation half-life (days) (fish): 0.26 |
| CCCCCCCCC(C(=O)O)C(=O)O |  | 116 °C |  |
| Cc1onc(-c2ccccc2)c1C(=O)N[C@@H]1C(=O)N2[C@@H]1SC(C)(C)[C@@H]2C(=O)O |  | 188 °C |  |
| C1CC2CC12 (stereo not given) | 45.5 °C |  | log10 vapour pressure (mmHg): 2.56 |
| CCOCCOC(=O)c1ccccc1C(=O)OCCOCC | 345 °C | 34 °C |  |
| C=CC[C@@H](C)CC | 86.7 °C | -142 °C | log10 vapour pressure (mmHg): 1.87 |
| Cc1cc(C)cc(OCC2CNC(=O)O2)c1 (stereo not given) |  | 122 °C |  |
| C#CC(C)(C)NC(=O)c1ccc(C)cc1 |  |  | log10 Koc (L/kg): 1.76 |
| CCCCCCC(O)CCCCCCCCCCC(=O)O (stereo not given) |  |  | ready biodegradability: readily biodegradable |
| COc1cc2ccc(=O)oc2cc1OC |  | 146 °C |  |
| C[Si]1(C)O[Si](C)(C)O[Si](C)(C)O[Si](C)(C)O[Si](C)(C)O1 | 210 °C | -38 °C | log10 Henry constant (atm·m³/mol): 1.52; log10 vapour pressure (mmHg): -0.699; log10 biotransformation half-life (days) (fish): 2.74 |
| O=C(CCl)Oc1ccccc1 | 232 °C | 44.5 °C |  |

| Structure (SMILES) | boiling point | melting point | further results |
| --- | --- | --- | --- |
| CCCCC(C(=O)OCC)C(=O)OCC | 238 °C |  |  |
| CC(=O)CC(=O)Nc1ccc(Cl)cc1 |  | 132 °C |  |
| C=C1CCCC1 | 75.5 °C |  |  |
| CC(C)=NNC(N)=S |  |  | ready biodegradability: not readily biodegradable |
| NN=C(c1ccccc1)c1ccccc1 |  | 96.5 °C |  |
| CCCCCCCCCCCC(=O)Cl |  | -17 °C |  |
| C[C@]12CCC(=O)C[C@@H]1CC[C@@H]1[C@@H]2CC[C@]2(C)[C@@H](O)CC[C@@H]12 |  | 181 °C |  |
| CC(C)(C)CC(C)(C)N | 140 °C |  |  |
| CC(=O)N(CC(O)CO)c1c(I)c(C(=O)NCC(O)CO)c(I)c(C(=O)NCC(O)CO)c1I (stereo not given) |  | 177 °C |  |
| COP(=S)(OC)SCc1nc(N)nc(N)n1 |  | 165 °C | log10 vapour pressure (mmHg): -6.01; ready biodegradability: not readily biodegradable |
| COCC(C)Cl (stereo not given) | 99 °C |  |  |
| ON=C(C(=NO)c1ccccc1)c1ccccc1 |  | 240 °C |  |
| CC/C=C(\C)C(=O)O | 214 °C | 24.4 °C |  |
| CC[C@@H](CO)NC(=O)[C@@H]1C=C2c3cccc4[nH]cc(c34)C[C@H]2N(C)C1 |  | 172 °C |  |
| CC=C(C)C(C)(C)C | 112 °C |  |  |
| CCOC | 7.4 °C | -113 °C | log10 vapour pressure (mmHg): 3.17 |
| CN(C)C(=O)N(C(=O)c1ccccc1)c1ccc(Cl)c(Cl)c1 |  | 119 °C |  |
| CC(C)(F)F | -0.4 °C | -105 °C |  |
| Nc1ccn([C@H]2CC[C@@H](CO)O2)c(=O)n1 |  | 218 °C |  |
| C=CCCCCCCCCCCCCCCCCCCCCC(=O)O |  |  | ready biodegradability: readily biodegradable |
| Clc1ccc(OCOc2ccc(Cl)cc2)cc1 |  | 70.5 °C |  |
| O=C(OCC(F)(F)F)C(F)(F)F | 55 °C |  |  |
| Cc1ccc(N)cc1Br | 256 °C | 26 °C |  |
| CCCCCCCCCS | 220 °C | -20.1 °C | log10 vapour pressure (mmHg): -0.881 |
